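Tested at 5 concentrations; 48 h exposure; 96-well plates; endpoints linearly interpolated, else capped at highest concentration. At the GI50, growth is halved. At the TGI there is no net growth.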
Key:
Assay in all cases: NCI-60 cell line screen, 48 h; in the data active = GI50 below about 0.43 µM; inactive = the rest
UO-31 renal = test system: UO-31 renal
NCI-H522 lung = test system: NCI-H522 lung
NCI-H460 lung = test system: NCI-H460 lung
786-0 renal = test system: 786-0 renal
COLO 205 colon = test system: COLO 205 colon
A549 NSCLC = test system: A549 NSCLC
NCI/ADR-RES ovarian = test system: NCI/ADR-RES ovarian
SF-295 CNS = test system: SF-295 CNS
CAKI-1 renal = test system: CAKI-1 renal
M14 melanoma = test system: M14 melanoma
UACC-62 melanoma = test system: UACC-62 melanoma
UACC-257 melanoma = test system: UACC-257 melanoma
SW-620 colon = test system: SW-620 colon
RXF 393 renal = test system: RXF 393 renal
NCI-H23 lung = test system: NCI-H23 lung
RPMI-8226 leukemia = test system: RPMI-8226 leukemia
SK-MEL-28 melanoma = test system: SK-MEL-28 melanoma
CCRF-CEM leukemia = test system: CCRF-CEM leukemia
K-562 leukemia = test system: K-562 leukemia
T-47D breast = test system: T-47D breast
NCI-H226 lung = test system: NCI-H226 lung
SK-OV-3 ovarian = test system: SK-OV-3 ovarian
OVCAR-8 ovarian = test system: OVCAR-8 ovarian
KM12 colon = test system: KM12 colon
SF-268 CNS = test system: SF-268 CNS
A498 renal = test system: A498 renal
SNB-75 CNS = test system: SNB-75 CNS
HCT-15 colon = test system: HCT-15 colon
PC-3 prostate = test system: PC-3 prostate
OVCAR-4 ovarian = test system: OVCAR-4 ovarian
SR leukemia = test system: SR leukemia
HS 578T breast = test system: HS 578T breast
OVCAR-3 ovarian = test system: OVCAR-3 ovarian
HOP-92 NSCLC = test system: HOP-92 NSCLC
MCF7 breast = test system: MCF7 breast
MALME-3M melanoma = test system: MALME-3M melanoma
U251 CNS = test system: U251 CNS
SF-539 CNS = test system: SF-539 CNS
MDA-MB-435 = test system: MDA-MB-435
HCT-116 colon = test system: HCT-116 colon
SN12C renal = test system: SN12C renal
SK-MEL-2 melanoma = test system: SK-MEL-2 melanoma
OVCAR-5 ovarian = test system: OVCAR-5 ovarian
HL-60(TB) leukemia = test system: HL-60(TB) leukemia
SNB-19 CNS = test system: SNB-19 CNS
DU-145 prostate = test system: DU-145 prostate
BT-549 breast = test system: BT-549 breast
SK-MEL-5 melanoma = test system: SK-MEL-5 melanoma
MOLT-4 leukemia = test system: MOLT-4 leukemia
HT29 colon = test system: HT29 colon
ACHN renal = test system: ACHN renal
MDA-MB-231 breast = test system: MDA-MB-231 breast
TK-10 renal = test system: TK-10 renal
HOP-62 NSCLC = test system: HOP-62 NSCLC
LOX IMVI melanoma = test system: LOX IMVI melanoma
IGROV1 ovarian = test system: IGROV1 ovarian
HCC-2998 colon = test system: HCC-2998 colon

COc1ccc(C2=C(c3cn(C)c4ccccc34)C(=O)NC2=O)cc1
> 25 µM: TGI (UO-31 renal) | TGI (NCI-H522 lung) | TGI (NCI-H460 lung) | TGI (786-0 renal) | TGI (COLO 205 colon) | TGI (A549 NSCLC) | TGI (NCI/ADR-RES ovarian) | TGI (SF-295 CNS) | TGI (CAKI-1 renal) | TGI (M14 melanoma) | TGI (UACC-62 melanoma) | TGI (UACC-257 melanoma) | TGI (SW-620 colon) | TGI (RXF 393 renal) | TGI (NCI-H23 lung) | TGI (RPMI-8226 leukemia) | TGI (SK-MEL-28 melanoma) | TGI (CCRF-CEM leukemia) | TGI (K-562 leukemia) | TGI (T-47D breast) | TGI (NCI-H226 lung) | TGI (SK-OV-3 ovarian) | TGI (OVCAR-8 ovarian) | TGI (KM12 colon) | TGI (SF-268 CNS) | TGI (A498 renal) | TGI (SNB-75 CNS) | TGI (HCT-15 colon) | TGI (PC-3 prostate) | TGI (OVCAR-4 ovarian) | TGI (SR leukemia) | TGI (HS 578T breast) | TGI (OVCAR-3 ovarian) | TGI (HOP-92 NSCLC) | TGI (MCF7 breast) | TGI (MALME-3M melanoma) | TGI (U251 CNS) | TGI (SF-539 CNS) | TGI (HCT-116 colon) | TGI (SN12C renal) | TGI (SK-MEL-2 melanoma) | TGI (OVCAR-5 ovarian) | TGI (HL-60(TB) leukemia) | TGI (SNB-19 CNS) | TGI (DU-145 prostate) | TGI (BT-549 breast) | TGI (SK-MEL-5 melanoma) | TGI (MOLT-4 leukemia) | TGI (HT29 colon) | TGI (ACHN renal) | TGI (MDA-MB-231 breast) | TGI (TK-10 renal) | TGI (HOP-62 NSCLC) | TGI (LOX IMVI melanoma) | TGI (IGROV1 ovarian) | TGI (HCC-2998 colon)
> 14.7 µM: TGI (MDA-MB-435)
inactive: GI50 (UO-31 renal) > 23.7 µM | GI50 (NCI-H522 lung) > 12.3 µM | GI50 (NCI-H460 lung) 11.1 µM | GI50 (786-0 renal) > 25 µM | GI50 (COLO 205 colon) 10.7 µM | GI50 (A549 NSCLC) 14.1 µM | GI50 (NCI/ADR-RES ovarian) > 17.3 µM | GI50 (SF-295 CNS) > 17 µM | GI50 (CAKI-1 renal) > 22.3 µM | GI50 (M14 melanoma) 19.4 µM | GI50 (UACC-62 melanoma) 13 µM | GI50 (UACC-257 melanoma) > 25 µM | GI50 (SW-620 colon) 8.95 µM | GI50 (RXF 393 renal) 10.6 µM | GI50 (NCI-H23 lung) > 25 µM | GI50 (RPMI-8226 leukemia) > 20.3 µM | GI50 (SK-MEL-28 melanoma) > 23 µM | GI50 (CCRF-CEM leukemia) 16.3 µM | GI50 (K-562 leukemia) 3.89 µM | GI50 (T-47D breast) > 24.1 µM | GI50 (NCI-H226 lung) > 22.3 µM | GI50 (SK-OV-3 ovarian) 24.3 µM | GI50 (OVCAR-8 ovarian) > 25 µM | GI50 (KM12 colon) 8 µM | GI50 (SF-268 CNS) > 20.9 µM | GI50 (A498 renal) 6.74 µM | GI50 (SNB-75 CNS) 1.97 µM | GI50 (HCT-15 colon) 6.05 µM | GI50 (PC-3 prostate) > 21.9 µM | GI50 (OVCAR-4 ovarian) > 14.6 µM | GI50 (SR leukemia) 6.14 µM | GI50 (HS 578T breast) 9.65 µM | GI50 (OVCAR-3 ovarian) 17 µM | GI50 (HOP-92 NSCLC) > 14.5 µM | GI50 (MCF7 breast) 8.03 µM | GI50 (MALME-3M melanoma) > 25 µM | GI50 (U251 CNS) > 23.6 µM | GI50 (SF-539 CNS) 9.76 µM | GI50 (MDA-MB-435) 1.56 µM | GI50 (HCT-116 colon) 12.7 µM | GI50 (SN12C renal) 24.5 µM | GI50 (SK-MEL-2 melanoma) 14.2 µM | GI50 (OVCAR-5 ovarian) > 25 µM | GI50 (HL-60(TB) leukemia) 14.5 µM | GI50 (SNB-19 CNS) > 25 µM | GI50 (DU-145 prostate) > 25 µM | GI50 (BT-549 breast) > 25 µM | GI50 (SK-MEL-5 melanoma) > 18.4 µM | GI50 (MOLT-4 leukemia) 15.5 µM | GI50 (HT29 colon) 9.43 µM | GI50 (ACHN renal) > 25 µM | GI50 (MDA-MB-231 breast) > 25 µM | GI50 (TK-10 renal) > 21 µM | GI50 (HOP-62 NSCLC) > 23.1 µM | GI50 (LOX IMVI melanoma) 24.9 µM | GI50 (IGROV1 ovarian) > 25 µM | GI50 (HCC-2998 colon) > 23.1 µM
